Reference: patent US7056715B1, “GST sequences from soybean and their use in the production of herbicide resistant plants” (Syngenta Limited, priority 1999, dated 2006)

How the values were obtained:
Conditions in all cases: fomesafen 10 g ai ha^-1 to aerial tissue at approximately 10-leaf stage, visual assessment 5 days post application
[1] = test system: transgenic tobacco line T82 3747 (pFT2: soybean GST 3.3 and homoglutathione synthetase); test: Herbicide tolerance test, transgenic tobacco line T82 3747; assay type: in vivo, Nicotiana tabacum
Source text: (§1) 6.1 Plants with increased tolerance to the herbicides acifluorfen and fomesafen were obtained by expression in the plant host of both the active soybean GST 3.3 and the homoglutathione synthetase to further increase levels of homoglutathione, required for the enhanced efficiency function of GST 3.3. 6.2 PCR, using oligonucleotide primers hGSH-Nco1 (SEQ ID No. 21) and hGSH-Kpn1 (SEQ ID No.22) was used to introduce a 5′ Nco1 site and 3′ Kpn1 site into the […]. The resulting PCR product was purified, sequenced, digested with Nco1 and Kpn1 and ligated into the vector pMJB2 (FIG. 1). The expression cassette, comprising the double enhanced CaMV35S promoter: Glucanase II leader, hGSH synthetase cDNA and nos terminator was then excised from pMJB2 using […] and ligated into the similarly digested binary vector pMOG800 (FIG. 3). 6.3 Oligonucleotide primers 3.6-Bgl II (SEQ ID No. 23) and 3.6 Nco1 (SEQ ID No.24) were used to introduce Nco1 and Bgl II sites at the 5′ and 3′ end of the GST 3.6 cDNA respectively. The resulting PCR product was purified, sequenced, digested with Nco1 and Bgl II and sub-cloned into the vector pMOG 1051 (FIG. 2). […] Orientation of the insert was determined by PCR. […]

[2] = test system: Nicotiana tabacum var. Samsun, WT; test: Herbicide tolerance test, wild-type tobacco; assay type: in vivo
Experimental: 7.1 The binary vector pFT2 was transformed into Agrobacterium tumefaciens strain LBA 4404 using the freeze thaw method of transformation provided by Holsters et al., 1978. Tobacco transformation and whole plant regeneration was performed using Nicotiana tabacum var. Samsun according to standard protocols detailed by Bevan, 1984. Transformation events were selected on MS-media containing kanamycin. Other transformation methods may be employed for the transformation of other crops, such as soybean. Examples of such methods are referred to below.
9.1 Following tissue culture, kanamycin-resistant plantlets were transferred to 5 inch pots containing John Innes potting compost no. 3. The plants were allowed to develop to approximately the 10-leaf stage and fomesafen applied at 10 g ai ha^−1, formulated with non-ionic surfactant, to the aerial tissue using a track sprayer. Visual assessment of phytotoxicity/plant necrosis is performed 5 days post application.

[3] = test system: transgenic tobacco line T82 3740 (pFT2: soybean GST 3.3 and homoglutathione synthetase); test: Herbicide tolerance test, transgenic tobacco line T82 3740; assay type: in vivo, Nicotiana tabacum
Source text: as §1

`CS(=O)(=O)NC(=O)c1cc(Oc2ccc(C(F)(F)F)cc2Cl)ccc1[N+](=O)[O-]` [fomesafen] was tested, and the “% damage” value [1] was 5%, the “% damage” value [2] was 55% and the “% damage” value [3] was 15%.
